Measurements published in US20240358692A1, “TREATMENT OF SCLERODERMA” (Aisa Pharma, Inc., priority 2023, published 2024).

How the values were obtained:
participants with SSc-RP [1] = experiment: Frequency of weekly RP attacks (all attacks; primary endpoint), patient diary; format: in vivo, human; details: ITT Part A
Description: Percent change from baseline evaluation for frequency of weekly RP attacks were or will be used as the primary efficacy variable. The sponsor-developed participant-informed diary will be used to record data. Frequency of weekly RP attacks is defined as the total number of RP attacks divided by the number of days with available diary data within the last 7 days of each dosing period then multiplied by 7. Total number of RP attacks during the last 7 days of screening period divided by the number of days with available data then multiplied by 7 will be used as baseline for the analysis of all periods. The variable will be calculated as follows: […]
Percent change from baseline evaluation for frequency of weekly RP attacks was and will be the primary efficacy endpoint. Frequency of weekly RP attacks is defined as the total number of RP attacks divided by the number of days with available diary data within the last 7 days of each dosing period then multiplied by 7. Total number of RP attacks during the last 7 days of screening period divided by the number of days with available data then multiplied by 7 will be used as baseline for the analysis of all periods.

participants with SSc-RP [2] = experiment: SHAQ - Visual Analog Scale - Finger Ulcers; format: in vivo, human
Description: The standard, validated, patient reported outcome measures tool for SSc patients, the Scleroderma Health Assessment Questionnaire (SHAQ), will be used to assess the participant qualify of life. Details are attached in the Appendix. The participant quality of life will be scored, and a disability index calculated for each questionnaire completed by the patient at Screening and each in-clinic visit. The absolute change in participant quality of life from baseline to the end of each dosing period will be calculated similar to frequency data as before.
The standard, validated, patient reported outcome measures tool for SSc patients, the SHAQ, was collected at the time points specified in the study schedules (FIG. 2 and FIGS. 4A and 4B) to assess the participant's quality of life. The SHAQ included a Raynaud's VAS that will also be reported separately.

[3] = Tadalafil 5 mg, Baseline RCS stratum 2 (lower half of table)
[4] = tadalafil 5 mg daily, n=1, excluding outliers, last 7 days of dosing
[5] = tadalafil 5 mg daily, n=2, last 7 days of dosing
[6] = Tadalafil 5 mg (N = 5), Day 12, PP Population, Part A

CN1CC(=O)N2[C@H](c3ccc4c(c3)OCO4)c3[nH]c4ccccc4c3C[C@@H]2C1=O [Tadalafil]
Weekly RP Attacks (All Attacks) Change from Baseline, Mean (participants with SSc-RP [1]; [3]): 3.00
Weekly RP Attacks (All Attacks) Change from Baseline, Median (participants with SSc-RP [1]; [3]): 3.00
Weekly RP Attacks (All Attacks), Mean (participants with SSc-RP [1]; [3]): 13.00
Weekly RP Attacks (All Attacks), Median (participants with SSc-RP [1]; [3]): 13.00
Weekly RP Attacks (All Attacks) Change from Baseline, Mean (participants with SSc-RP [1]; [4]): 6.00
Weekly RP Attacks (All Attacks) Change from Baseline, Median (participants with SSc-RP [1]; [4]): 6.00
Weekly RP Attacks (All Attacks), Mean (participants with SSc-RP [1]; [4]): 19.00
Weekly RP Attacks (All Attacks), Median (participants with SSc-RP [1]; [4]): 19.00
Weekly RP Attacks (All Attacks) Change from Baseline, Mean (participants with SSc-RP [1]; [5]): 3.00
Weekly RP Attacks (All Attacks) Change from Baseline, Median (participants with SSc-RP [1]; [5]): 3.00
Weekly RP Attacks (All Attacks), Mean (participants with SSc-RP [1]; [5]): 13.00
Weekly RP Attacks (All Attacks), Median (participants with SSc-RP [1]; [5]): 13.00
SHAQ Visual Analogue Scale - Finger Ulcers, Change from Baseline, Mean (participants with SSc-RP [2]; [6]): 0.250
SHAQ Visual Analogue Scale - Finger Ulcers, Change from Baseline, Median (participants with SSc-RP [2]; [6]): 0.000
SHAQ Visual Analogue Scale - Finger Ulcers, Percent Change from Baseline, Mean (participants with SSc-RP [2]; [6]): 6.10%
SHAQ Visual Analogue Scale - Finger Ulcers, Percent Change from Baseline, Median (participants with SSc-RP [2]; [6]): 6.10%
VAS Finger Ulcers Change from Baseline Max (participants with SSc-RP [2]; tadalafil 5 mg): 1.00
VAS Finger Ulcers Change from Baseline Mean (participants with SSc-RP [2]; tadalafil 5 mg): 0.250
VAS Finger Ulcers Change from Baseline Median (participants with SSc-RP [2]; tadalafil 5 mg): 0.000
VAS Finger Ulcers Change from Baseline Min (participants with SSc-RP [2]; tadalafil 5 mg): 0.00
VAS Finger Ulcers Change from Baseline Q1 (participants with SSc-RP [2]; tadalafil 5 mg): 0.000
VAS Finger Ulcers Change from Baseline Q3 (participants with SSc-RP [2]; tadalafil 5 mg): 0.500
VAS Finger Ulcers Day 12 Max (participants with SSc-RP [2]; tadalafil 5 mg): 9.20
VAS Finger Ulcers Day 12 Median (participants with SSc-RP [2]; tadalafil 5 mg): 0.050
VAS Finger Ulcers Day 12 Min (participants with SSc-RP [2]; tadalafil 5 mg): 0.00
VAS Finger Ulcers Day 12 Q1 (participants with SSc-RP [2]; tadalafil 5 mg): 0.000
VAS Finger Ulcers Day 12 Q3 (participants with SSc-RP [2]; tadalafil 5 mg): 4.650
VAS Finger Ulcers Percent Change from Baseline Max (participants with SSc-RP [2]; tadalafil 5 mg): 12.2%
VAS Finger Ulcers Percent Change from Baseline Mean (participants with SSc-RP [2]; tadalafil 5 mg): 6.10%
VAS Finger Ulcers Percent Change from Baseline Median (participants with SSc-RP [2]; tadalafil 5 mg): 6.10%
VAS Finger Ulcers Percent Change from Baseline Min (participants with SSc-RP [2]; tadalafil 5 mg): 0.0%
VAS Finger Ulcers Percent Change from Baseline Q1 (participants with SSc-RP [2]; tadalafil 5 mg): 0.00%
VAS Finger Ulcers Percent Change from Baseline Q3 (participants with SSc-RP [2]; tadalafil 5 mg): 12.20%
